Test results published in patent publication US20070098636A1, “Method of identifying responders to treatment with insulin sensitizers” (priority 2003, published 2007).

Tests used:
db/db mice = assay: Adiponectin complex distribution in serum of treated db/db mice (velocity sedimentation, quantitative Western blot); assay type: in vivo, mouse; settings: male db/db mice, 10 mg/kg-day by gavage, following 11 days of treatment
Protocol: (§1) Velocity sedimentation/gel filtration chromatography for separation of adiponectin complexes—5-20% sucrose gradients in 10 mM HEPES pH 8, 125 mM NaCl were poured stepwise (5%, 10%, 15%, 20%) in 2-ml thin-walled ultracentrifuge tubes (Becton Dickinson) and allowed to equilibrate overnight at 4° C. Following layering of the sample on top (diluted 1:10 with 10 mM HEPES pH 8, 125 mM NaCl in the case of serum), the gradients were spun at 55,000 RPM for four hours at 4° C. in a TLS55 rotor in a Beckman TL-100 tabletop ultracentrifuge. 150 μL gradient fractions were sequentially retrieved from the top of the gradient and analyzed by quantitative Western blot analysis.
(§2) Immunoblotting—Separation of proteins by SDS-PAGE, fluorography, and immunoblotting were performed as described previously (20). Primary and secondary antibodies were diluted in TBS with 0.05% Tween-20 and 1% BSA. Horseradish peroxidase conjugated secondary antibodies were detected with enhanced chemiluminescence according to the manufacturer's instructions (Pierce). For quantitative Western blotting, proteins were transferred to BA83 nitrocellulose (Schleicher & Schuell) after SDS-PAGE. […] Blots were analyzed with a Phosphoimager (Molecular Dynamics) and fractions 4-6 and 9-11 from velocity sedimentation (LMW and […] adiponectin, respectively) were quantitated with Imagequant Software. […]

non-diabetic human males = assay: Human Clinical Study A: plasma adiponectin and adiponectin complexes pre- and post-treatment; assay type: in vivo; settings: 4 mg bid for 14 days
Protocol: as §1, §2

## CN(CCOc1ccc(CC2SC(=O)NC2=O)cc1)c1ccccn1 (stereo not drawn) [rosiglitazone]
db/db mice
  percentage of adiponectin found in the high molecular weight (HMW) form: approximately 45 % of total circulating adiponectin
non-diabetic human males
  total adiponectin relative to placebo: about 2 fold
non-diabetic human males; pre-treatment value 20-25%
  HMW/total adiponectin ratio, post-treatment value: 45-50%
